Measurements from patent US20240299499A1, “Therapeutic Peptide Formulations” (Eli Lilly and Company, priority 2020, published 2024).
In brackets after ≈: the same amount, converted by molar mass. Read-outs that look alike come from different tables or passages of the source.

What was measured:
Format in all cases: physicochemical
[1] = Solubility of Compound 1 at 25° C. between pH 5.0 and pH 7.0 (UV-Vis at 280 nm)
Procedure: All solutions comprised 10 mM tris (1.21 g/L) and 0.05% EDTA (0.5 g/L). The solution pH was titrated using either 1N hydrochloric acid or concentrated tris base stock solution.
The concentration of Compound 1 was measured at 280 nm by a UV-Vis spectrophotometer (SoloVPE). UV-Vis spectrophotometer is commonly used for quantification of proteins or peptides in solution. A characteristic UV absorption spectrum around 280 nm is predominately from the aromatic amino acids such as tryptophan (Trp, W) and tyrosine (Tyr, Y). When the molar extinction coefficient of the protein or peptide is known, the Beer-Lambert law is used to accurately quantitate amount of protein or peptide by UV absorbance, assuming the molecule contains no UV-absorbing non-proteinaceous components such as bound nucleotide cofactors, heme, or iron-sulfur centers. Compound 1 has tyrosine amino acid residues at positions 10 and 13 and has a tryptophan amino acid residue at position 25 and has an extinction coefficient of 1.86 mL·mg^−1·cm^−1 (as calculated by the Pace Method). Measuring the peptide concentration at different pH conditions by this method is appropriate for Compound 1.

[2] = Solution formulation feasibility study: covalent aggregates by SEC; conditions: pH values of 7.0-8.5
Procedure: Solutions were filtered through […] PVDF filters. In a laminar flow hood, the solutions were filled into glass vials. Vials were capped, and stored at 5° C., 25° C. and 30° C. Samples were withdrawn and submitted for testing as follows: (a) initial testing; (b) two weeks; and (c) one month. The formation of covalent aggregates was measured by size-exclusion chromatography (SEC).

[3] = Effect of antioxidants: chemical stability by RP-HPLC (total impurities, Trp oxidation); conditions: refrigerated condition
Procedure: Solutions were filtered through […] PVDF filters. In a laminar flow hood, the solutions were filled into glass vials. Vials were capped, and stored at 5° C., 25° C. and 30° C. Four formulations comprising Compound 1 were prepared to evaluate the stabilization efficacy of antioxidants, namely, EDTA, citrate and methionine. […] Subsequently, a fifth sample containing higher concentration of methionine (100 mM vs. 10 mM) was prepared to evaluate the effect of methionine concentration (Table 15, Lot No. 26). Samples were prepared, and stored at 5° C., 25° C. and 30° C. for up to 3 months. At appropriate times, stability-indicating assays were performed to assess the physical and chemical stability.
At 25° C. and 30° C., there are significant differences in stabilization efficacy.

CC(C)C[C@H](NC(=O)[C@H](CC(C)C)NC(=O)[C@H](Cc1c[nH]c2ccccc12)NC(=O)[C@H](CCC(=O)O)NC(=O)[C@@H](NC(=O)[C@H](Cc1ccccc1)NC(=O)[C@H](CCC(=O)O)NC(=O)[C@H](CCCCNC(=O)COCCOCCNC(=O)COCCOCCNC(=O)CC[C@H](NC(=O)CCCCCCCCCCCCCCCCCCC(=O)O)C(=O)O)NC(=O)[C@H](C)NC(=O)[C@H](CCCCN)NC(=O)[C@H](CCCCN)NC(=O)[C@H](CCC(=O)O)NC(=O)[C@H](CC(=O)O)NC(=O)[C@H](CC(C)C)NC(=O)[C@H](Cc1ccc(O)cc1)NC(=O)[C@H](CCCCN)NC(=O)[C@H](CO)NC(=O)[C@H](Cc1ccc(O)cc1)NC(=O)[C@H](CC(=O)O)NC(=O)[C@H](CO)NC(=O)[C@@H](NC(=O)[C@H](Cc1ccccc1)NC(=O)[C@@H](NC(=O)CNC(=O)[C@H](CCC(N)=O)NC(=O)C(C)(C)NC(=O)[C@@H](N)Cc1c[nH]cn1)[C@@H](C)O)[C@@H](C)O)C(C)C)C(=O)N[C@@H](CCC(=O)O)C(=O)NCC(=O)NCC(=O)N1CCC[C@H]1C(=O)N[C@@H](CO)C(=O)N[C@@H](CO)C(=O)NCC(N)=O [Compound 1]
solubility ([1]; 10 mM tris buffer with 0.05% EDTA, aqueous buffer, Solution pH 6.16, 10 mM tris and 0.05% EDTA, 25° C., read-out: Compound 1 concentration in solution): 14.5 mg/mL (≈ 3.19 mM)
solubility ([1]; 10 mM tris buffer with 0.05% EDTA, aqueous buffer, Solution pH 6.84, 10 mM tris and 0.05% EDTA, 25° C., read-out: Compound 1 concentration in solution): 44.6 mg/mL (≈ 9.76 mM)
Compound 1 concentration in solution ([1]; Solution pH 5.31, 10 mM tris and 0.05% EDTA, 25° C.): 0.00 mg/mL
solubility ([1]; lower pH values (e.g. pH 5.0 to 6.5)): sub-optimal solubility
solubility (change with pH) ([1]; pH increased from 5.3 to 6.8): increased significantly
solubility by extrapolation of the data ([1]; pH values of 7.0 and above): higher
stability in certain formulations [2]: sub-optimal stability
chemical degradation by RP-HPLC [3]: not substantial
